Test results: patent publication US6566359B1, “2,4,6-trimethyl-1,4-dihydro-pyridine-3,5-dicarboxylic acid esters as neuroprotective drugs” (Board of Supervisors of Louisiana State University and …, priority 2002, dated 2003)
Where a name gives a salt, the structure may show the parent alone.

What was measured:
[1] = Middle cerebral artery occlusion (MCA-O) stroke model, infarct volume by TTC; format: in vivo, C57BL/6 mice
[2] = tested on: c-jun aminoterminal protein kinase (JNK); experiment: PAF-mediated JNK activation in HEK-293 cells, immunocomplex kinase assay; format: cell-based, human; settings: PAF 100 nM
Method: Experimental Protocol: HEK-293 cells (transformed primary human embryo kidney cells, ATCC# CRL-1573) were cultured to confluency in DMEM-10% FBS high-glucose medium (GIBCO-BRL, Rockville, Md). Cells were cultured in 6-well plates and were treated with PAF (100 nM) for 60 min or interleukin-1β (“IL-1β”; 10 ng/ml) for 30 min, and then frozen for later assays for JNK and ERK as described below. To test the effect of compounds of the LAU-0900 series, HEK-293 cells were treated for 30 min with various concentrations (from 10 nM to 1 μM) of the experimental LAU-0900 series compound before the addition of PAF or IL-1β. […]
To measure the JNK activity, aliquots of 5 μg immunoprecipitates were incubated for 30 min at 30° C. using 10 μg GST-cJUN (Santa Cruz Biotechnology, Santa Cruz, Calif.) as substrate. […] The filter papers were washed twice with 10 mL per square 1% phosphoric acid, followed by one wash with water. ^32P on the filter paper was counted in a scintillation counter to quantify the phosphorylation of substrate proteins.

human COX-2 promoter [3] = experiment: PAF-induced COX-2 promoter-luciferase transcription in CV-1 cells; format: cell-based; settings: 100 nM compound, 100 nM PAF
Method: (§1) To test the ability of LAU-0900 series compounds to inhibit COX-2 expression, a kidney cell line was transiently transfected with the 830-base-pair human COX-2 promoter construct (proximal to the transcription start site) fused to the luciferase gene as a reporter as described below.
(§2) Transfection of CV-1 cells with human COX-2promoterfused with LUC: C V-1 Cells (African green monkey kidney cell line, ATCC # CCL-17) were grown in DMEM-F12 (GIBCO-BRL, Rockville, Md.) supplemented with 10% FBS (fetal bovine serum) in 6-well plates. At 80% confluence, the cells were transfected with 10 μg human COX-2 promoter-LUC construct (containing 830 base pairs of the human COX-2 promoter (donated by Dr. Stephen Prescot, Huntsman Cancer Institute, Salt Lake City, Utah) using a liposomal transfection reagent (DOTAP, Roche Diagnostics, Gmbh, Mannheim, Germany). Promoterless β-galactosidase construct (Promega, Madison, Wis.) was co-transfected to assess transfection efficiency. Three hours after transfection at 37° C., the medium was removed, and the cells were washed with phonsphate-buffered saline solution, pH 7.2 (PBS; Gibco-BRL, Rockville Md. The plates were further incubated at 37° C. in complete medium DMEM-F12 with 10% FBS for about 8-10 hr. Before the addition of the inducers of COX-2, PAF (100 nM) or IL-1β (10 ng/ml), the CV-1-transfected cells were serum-starved for 8 hr at 37° C. After the addition of the inducers, the cells were incubated for 8-10 hr at 37° C. Then the medium was removed, the cells were washed with PBS, harvested, and frozen at −80° C. until used for assays.
(§3) To test the effectiveness of the LAU-0900 series compounds, the transfected cells were treated for 1 hr with 100 nM of various LAU-0900 series compounds before the addition of the inducers (either PAF or IL-1β, and the LAU-0900 compound remained in the medium throughout the incubation period.
(§4) Luciferase assay of transfected CV-1 cells: Frozen cells were homogenized in 300 μl luciferase assay buffer (“ALL”, Analytical Luminescence Laboratory, San Diego, Calif.), and cellular debris was collected as a pellet by centrifugation at 2800×g for 20 min at 4° C. Supernatants (20-30 μl) were normalized to 1 μg/ml of total protein content, and were mixed with 70-80 μl ALL buffer. Reactions were initiated by injection of 100 μl of 1 mM luciferin (Sigma Chemical Co., St. Louis, Mo.). The relative light units were determined by using an ALL luminometer that recorded over 20-second intervals.

human COX-2 promoter [4] = experiment: IL-1β-induced COX-2 promoter-luciferase transcription in CV-1 cells; format: cell-based; settings: 100 nM compound, 10 nM IL-1β
Method: as §1, §2, §3, §4

ARPE-19 cells = experiment: Oxidative stress-induced cell death (TNF + H2O2), Hoechst staining; format: cell-based, human; settings: TNF 10 ng/ml + H2O2 1.6 μM
Method: To test the effectiveness of the LAU-0900 series compounds as inhibitors of oxidative stress-induced cell death, human retinal pigment epithelial cells in culture (ARPE-19 cells, ATCC #CRL-2302) were used. ARPE-19 cells were cultured to confluence in DMEM-10% FBS medium (Gibco-BRL). The cells were then divided into 11 groups. Nine groups were exposed overnight to […] of a test compound selected from LAU-0901, LAU-0903, LAU-0904, LAU-0905, LAU-0906, LAU-0907, LAU-0908, LAU-0909, and LAU-0910. The other two groups were control groups, and were not exposed to any test chemical. In the nine groups and in one control group, oxidative stress was triggered by the addition of a combination of tumor necrosis factor (“TNF”; 10 ng/ml) and hydrogen peroxide (“H2O2”; 1.6 μM). The second control group was not treated with TNF and H2O2.
The amount of Hoeschst staining was least in the group treated with LAU-0901, and most in the group treated with LAU-0910.

[5] = molecular target: intracellular type PAF receptor (rat brain microsomal preparations) (Rattus norvegicus, UniProt P46002); experiment: Competition for 3H-PAF binding to rat brain cortex microsomal membranes; settings: rat brain microsomal
Chain of intracellular type PAF receptor (rat brain microsomal preparations) (P46002 whole entry): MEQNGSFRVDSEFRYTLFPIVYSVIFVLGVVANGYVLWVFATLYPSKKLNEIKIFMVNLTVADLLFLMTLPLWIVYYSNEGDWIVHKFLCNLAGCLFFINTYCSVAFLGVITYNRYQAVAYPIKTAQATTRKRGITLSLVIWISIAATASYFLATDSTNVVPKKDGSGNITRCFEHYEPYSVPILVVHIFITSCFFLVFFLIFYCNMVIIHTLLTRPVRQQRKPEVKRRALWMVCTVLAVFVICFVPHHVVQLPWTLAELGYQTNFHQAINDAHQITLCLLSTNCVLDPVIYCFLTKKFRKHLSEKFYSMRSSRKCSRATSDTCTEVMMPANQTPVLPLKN
Method: (§5) Binding studies were performed on subcellular fractions of tissues obtained from rat brain cortex, according to procedures described in V. Marcheselli et al., “Distinct platelet-activating factor binding sites in synaptic endings and in intracellular membranes of rat cerebral cortex,” J. biol. Chem., vol. 265, pp. 9140-9145 (1990). Freshly dissected brain tissues were homogenized in ice-cold buffer (50 mM Tris-HCl, 2 mM EGTA, 5 mM PMSF, 250 mM sucrose, 7.4 pH). Subcellular fractions were obtained by differential centrifugation. The microsomal fraction was sedimented after 100,000×g for 1 hour centrifugation. In addition, three cell lines from Chinese hamster ovary (CHO) with varying expression of PAF receptors, CHO-A, CHO-B, and CHO-C cells (from Dr. Takao Shiizu, University of Tokyo, Tokyo, Japan) were cultured to the fourth-passage cells. These cells were cultured to confluence, then detached from their culturing flasks, and pelleted by rapid centrifugation (3,000 rpm, 10 min). Cellular pellets were homogenized in ice-cold buffer as described above. Freshly obtained microsomal fractions or CHO cellular homogenates were utilized for saturation, displacement, and competition studies using ^3H-PAF as the hot ligand, unlabeled-PAF to detect non-specific binding, and a LAU-0900 series compound to displace by competition ^3H-PAF bound to a receptor.

[6] = tested on: CHO-C cells (do not exp PAF-R); experiment: Competition for 3H-PAF binding to CHO-C cell homogenates; settings: CHO-C homogenates
Method: as §5
(§6) See B. Liu et al., “Implication of protein kinase C alpha in PAF-stimulated phospholipase D Activation in Chinese hamster ovary (CHO) cells expressing PAF receptor,” Biochem. Biophys. Res. Commun., vol.214, pp.418-423 (1995). […] Both the constants of inhibition (KI) and 50% of inhibitory activity (IC50) were significant at a low concentration of LAU-0903.

[7] = molecular target: T1, cell-surface-type PAF receptor over-expressed in CHO-B cells (Cavia porcellus, UniProt P21556); experiment: Competition for 3H-PAF binding to CHO-B cell homogenates; settings: CHO-B homogenates
T1 construct: expressed in transfected cells; host or cells: Chinese hamster ovary cells: CHO-B (high expression) and CHO-A (mild expression), used as cell homogenates
T1 sequence (P21556 whole entry): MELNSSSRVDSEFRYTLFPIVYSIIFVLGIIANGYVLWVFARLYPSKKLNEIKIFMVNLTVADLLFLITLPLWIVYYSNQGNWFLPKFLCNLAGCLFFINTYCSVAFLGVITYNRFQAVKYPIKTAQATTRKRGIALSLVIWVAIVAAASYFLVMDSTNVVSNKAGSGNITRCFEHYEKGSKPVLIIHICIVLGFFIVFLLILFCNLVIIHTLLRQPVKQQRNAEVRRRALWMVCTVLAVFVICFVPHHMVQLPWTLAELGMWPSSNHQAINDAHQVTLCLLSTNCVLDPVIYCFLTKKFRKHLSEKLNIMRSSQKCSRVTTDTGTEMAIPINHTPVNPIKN
Method: as §5, §6

[8] = known LD50; cited from earlier work
[9] = 30 mg/kg 1 hr after reperfusion following 1 hr of MCA-O

Compound: CC1=C(C(=O)OCCOc2ccc(Cl)c(Cl)c2)C(C)C(C(=O)OC(CN2CCOCC2)CN2CCOCC2)=C(C)N1 (centres unmarked) [LAU-0901, 2,4,6-Trimethyl-1,4-dihydro-pyridine-3,5-dicarboxylic acid 5-[2-(3,4-dichlorophenoxy)]ethyl ester 3-[1,3-di-(4-morpholinyl)-2-propyl-1-esterdihydrochloride]
- Reduction of infarcted volume [1, 9]: 40%
- Reduction of infarcted volume ([1]; 30 mg/kg at the onset of MCA-O, 1 hr MCA-O, killed 24 hr later): 40%
- Reduction of infarcted volume ([1]; 30 mg/kg intraperitoneally 1 h before MCA-O, 1 hr MCA-O, killed 24 hr after): 55%
- Lowest concentration inhibiting PAF-induced JNK [2]: ≤ 10 nM

Compound: COC(=O)C1=C(C)NC(C)=C(C(=O)OCCCSc2ccc(F)cc2)C1C (centres unmarked) [LAU-0904, 2,4,6-Trimethyl-1,4-dihydro-pyridine-3,5-dicarboxylic acid 5-[3-(4-fluorophenysulfanyl)]-propyl-1-ester 3-methyl ester]
- Reduction of infarcted volume [1, 9]: 40%

Compound: CCCOc1ccc(SCCCOC(=O)C2=C(C)NC(C)=C(C(=O)OC)C2C)cc1 (centres unmarked) [LAU-0907, 2,4,6-Trimethyl-1,4-dihydro-pyridine-3,5-dicarboxylic acid 5-[3-(4-propoxyphenylsulfanyl)]-propyl-1-ester 3-methyl ester]
- Inhibition of COX-2 transcription induced by PAF (human COX-2 promoter [3]): inhibited
- Inhibition of COX-2 transcription induced by IL-1β (human COX-2 promoter [4]): inhibited

Compound: COC(=O)C1=C(C)NC(C)=C(C(=O)OCCCOc2ccc(/C=C/C(C)=O)cc2)C1C (centres unmarked) [LAU-0908]
- Inhibition of COX-2 transcription induced by PAF (human COX-2 promoter [3]): inhibited
- Inhibition of COX-2 transcription induced by IL-1β (human COX-2 promoter [4]): inhibited

Compound: CCCCOc1ccc(OCCCOC(=O)C2=C(C)NC(C)=C(C(=O)OC)C2C)cc1 (centres unmarked) [LAU-0910, 2,4,6-Trimethyl-1,4-dihydropyridine-3,5-dicarboxylic acid 3-[3-(4-butoxyphenoxy)propyl]ester 5-methyl ester]
- Amount of Hoechst staining (cytoprotection) (ARPE-19 cells): most

Compound: CCCC(=O)c1ccc(OCCCOC(=O)C2=C(C)NC(C)=C(C(=O)OC)C2C)cc1 (centres unmarked) [LAU-0913, 2,4,6-Trimethyl-1,4-dihydro-pyridine-3,5-dicarboxylic acid 5-[3-(4-butyryl-phenoxy)-propyl]1-ester 3-methyl ester]
- Inhibition of COX-2 transcription induced by PAF (human COX-2 promoter [3]): inhibited
- Inhibition of COX-2 transcription induced by IL-1β (human COX-2 promoter [4]): inhibited

Compound: CCCCCCCCCCCCCCCCOC[C@H](COP(=O)([O-])OCC[N+](C)(C)C)OC(C)=O [^3H-PAF, ^3H-platelet-activating factor, reference compound]
- Kd ([5]; high-affinity binding site (H)): 0.00205 nM
- Kd ([5]; low-affinity binding site (L)): 30 nM
- Kd 3H-PAF [6]: No binding
- Kd [7]: 0.15 nM

Compound: CC(=O)Nc1ccc(O)cc1 [acetaminophen]
- LD50 [8]: 560 mg/kg
